Measurements as given in ChEMBL document CHEMBL4602688, “Bromopyrrole Alkaloids of the Sponge Agelas oroides Collected Near the Israeli Mediterranean Coastline” (J Nat Prod, 2020).

Legend:
Type in all cases: functional, organism-based
Pseudomonas aeruginosa = assay: Antibiofilm activity against Pseudomonas aeruginosa PAO1 assessed as inhibition of biofilm formation incubated for 24 hrs by crystal violet staining based assay; conditions: PAO1, 24 h
Kocuria [1] = assay: Antibiofilm activity against Kocuria isolate Eys10 assessed as inhibition of biofilm formation incubated for 24 hrs by crystal violet staining based assay; conditions: isolate Eys10, 24 h
Pseudomonas sp. [2] = assay: Growth inhibition of Pseudomonas sp. isolate ISP2_16 after 24 hrs; conditions: isolate ISP2_16, 24 h
Pseudomonas sp. NB86 [3] = assay: Growth inhibition of Pseudomonas sp. NB86 after 24 hrs; conditions: Pseudomonas sp. NB86, 24 h
Pseudomonas sp. NB86 [4] = assay: Antibiofilm activity against Pseudomonas sp. NB86 assessed as inhibition of biofilm formation incubated for 24 hrs by crystal violet staining based assay; conditions: Pseudomonas sp. NB86, 24 h
Pseudomonas sp. [5] = assay: Antibiofilm activity against Pseudomonas sp. isolate ISP2_16 assessed as inhibition of biofilm formation incubated for 24 hrs by crystal violet staining based assay; conditions: isolate ISP2_16, 24 h
Bacillus sp. = assay: Growth inhibition of Bacillus sp. isolate ISP2_A_B after 24 hrs; conditions: Bacillus sp. (in: firmicutes)
Pseudomonas sp. [6] = assay: Antibiofilm activity against Pseudomonas sp. isolate ISP2_A10pp assessed as inhibition of biofilm formation incubated for 24 hrs by crystal violet staining based assay
Kocuria [7] = assay: Growth inhibition of Kocuria isolate Eys10 after 24 hrs; conditions: isolate Eys10, 24 h
Pseudomonas sp. [8] = assay: Growth inhibition of Pseudomonas sp. isolate ISP2_Ab after 24 hrs
Sporosarcina sp. NB90 = assay: Growth inhibition of Sporosarcina sp. NB90 after 24 hrs; conditions: Sporosarcina sp. NB90, 24 h
Lysinibacillus [9] = assay: Antibiofilm activity against Lysinibacillus isolate Eys09 assessed as inhibition of biofilm formation incubated for 24 hrs by crystal violet staining based assay; conditions: isolate Eys09, 24 h
Pseudomonas sp. [10] = assay: Antibiofilm activity against Pseudomonas sp. isolate ISP2_Ab assessed as inhibition of biofilm formation incubated for 24 hrs by crystal violet staining based assay
Lysinibacillus [11] = assay: Growth inhibition of Lysinibacillus isolate Eys09 after 24 hrs; conditions: isolate Eys09, 24 h
Pseudomonas sp. [12] = assay: Growth inhibition of Pseudomonas sp. isolate ISP2_A10pp after 24 hrs

| IC50 (Pseudomonas aeruginosa) [µM] | IC50 (Kocuria [1]) [µM] | IC50 (Pseudomonas sp. NB86 [4]) [µM] | IC50 (Pseudomonas sp. [5]) [µM] | IC50 (Pseudomonas sp. [6]) [µM] | IC50 (Lysinibacillus [9]) [µM] | IC50 (Pseudomonas sp. [10]) [µM] | Structure (SMILES) | IC50 (Pseudomonas sp. [2]) [µM] | IC50 (Pseudomonas sp. NB86 [3]) [µM] | IC50 (Bacillus sp.) [µM] | IC50 (Kocuria [7]) [µM] | IC50 (Pseudomonas sp. [8]) [µM] | IC50 (Sporosarcina sp. NB90) [µM] | IC50 (Lysinibacillus [11]) [µM] | IC50 (Pseudomonas sp. [12]) [µM] |
| --- | --- | --- | --- | --- | --- | --- | --- | --- | --- | --- | --- | --- | --- | --- | --- |
| 15 | – | – | – | – | – | – | NC(=O)c1cc(Br)c(Br)[nH]1 | – | – | – | – | – | – | – | – |
| 10 | – | – | – | – | – | – | Nc1nc2c([nH]1)c1c(c3[nH]c(N)nc32)[C@H](CNC(=O)c2cc(Br)c(Br)[nH]2)[C@H]1CNC(=O)c1cc(Br)c(Br)[nH]1 [BENZOSCEPTRIN C] | – | – | – | – | – | – | – | – |
| 5.1 | 10 | 57 | 39 | 10 | 7.7 | 3.9 | Nc1ncc(/C=C/CNC(=O)c2cc(Br)c(Br)[nH]2)[nH]1 [OROIDIN] | 170 | 330 | 39 | 51 | 310 | 31 | 77 | 150 |
